Common to all, as to test: inhibition of tumour cell growth, NCI panel, 48 h
For experiment [1], the system named is COLO 205.
The subject of experiment [2] is UACC-62.
The subject of experiment [3] is BT-549.
For experiment [4], the system named is NCI/ADR-RES.
The subject of experiment [5] is MDA-N.
For experiment [6], the system named is A549.
Experiment [7] has as its system NCI-H226.
The test system of experiment [8] is SF-295.
The subject of experiment [9] is SNB-75.
Experiment [10] concerns MOLT-4.
Experiment [11] deals with MDA-MB-231.
Experiment [12] relates to CAKI-1.
Experiment [13] deals with UACC-257.
The subject of experiment [14] is NCI-H522.
Experiment [15] relates to HCT-15.
In experiment [16] the test system is OVCAR-8.
Experiment [17] relates to OVCAR-4.
For experiment [18], the system named is NCI-H460.
The test system of experiment [19] is SNB-19.
Experiment [20] has as its system NCI-H23.

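These data come from cells grown in 96-well plates and exposed to compound for 48 hours at five concentrations. GI50 marks 50% less growth.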 Active and inactive are the calls of the source. Cut-off read from the data, not from the text of the source: active = GI50 up to about 1.1 µM and inactive = higher.

The record followed here is ChEMBL document CHEMBL1201862, “PubChem BioAssay data set” (2004).

Turning to `CSCCC(NC(=O)C(Cc1c[nH]c2ccccc12)NC(=O)CCNC(=O)OC(C)(C)C)C(=O)NC(CC(=O)O)C(=O)NC(Cc1ccccc1)C(N)=O` (configuration not stated), the GI50 in experiment [1], in experiment [2], in [3], in experiment [4], in [5] and in experiment [6] was > 50 µM (inactive) each time. Also, the GI50 in [7], in experiment [8], in experiment [9], in experiment [10], in [11] and in experiment [12] was > 50 µM (inactive) each time. The GI50 in experiment [13] and in [14] was > 50 µM (inactive) in each case.

With `CCOC(=O)c1cc(C2(O)CCN(CC(C)CC)C2=O)c(-c2cc(C)no2)[nH]1` (configuration not stated), the GI50 in experiment [1] was > 100 µM (inactive); in experiment [2], > 100 µM (inactive); in experiment [3] it was > 100 µM (inactive); in experiment [4], > 100 µM (inactive); in experiment [5] it was > 100 µM (inactive); in experiment [15], over 100 µM. For the same compound, the GI50 in [16], in experiment [6], in [17], in experiment [7], in experiment [18] and in experiment [8] was > 100 µM (inactive) throughout. The GI50 in experiment [19], in experiment [9], in experiment [10], in experiment [11], in experiment [20] and in experiment [12] was > 100 µM (inactive) in each case. Moreover, the GI50 in experiment [13] was > 100 µM (inactive).

Turning to `O=C(Cc1nc2ncccc2[nH]c1=O)c1c[nH]c2ccccc12`, the GI50 in experiment [1] is 16.3 µM (inactive); in [2], 16.8 µM (inactive); in experiment [3] it was 29.4 µM (inactive); in [4], 29.4 µM (inactive); in experiment [5], 19.7 µM (inactive); in experiment [15], 31.6 µM. Further, the GI50 in experiment [16] is 23.4 µM (inactive); in [6], 20 µM (inactive); in experiment [18], 17.3 µM (inactive); in [8] it was 16.5 µM (inactive); in [19] it was 18.3 µM (inactive); in experiment [10] it was 26.4 µM (inactive). Further, the GI50 in [11] was 16.7 µM (inactive); in [20], 21.6 µM (inactive); in experiment [12], 17.4 µM (inactive); in experiment [13], 19.5 µM (inactive); in experiment [14], 16.6 µM (inactive).

`NC1(CCNC(=O)c2ccccc2)CCN(C(=O)c2ccccc2)CC1`: the GI50 was 41.7 µM (inactive) in experiment [1]; > 100 µM (inactive) in experiment [2]; > 100 µM (inactive) in experiment [3]; > 100 µM (inactive) in [4]; > 100 µM (inactive) in experiment [5]; over 100 µM in experiment [15]. Also, the GI50 in experiment [16], in [6], in experiment [7], in [18], in [8] and in experiment [19] was > 100 µM (inactive) each time. Also, the GI50 is 0.548 µM (active) in [9]; > 100 µM (inactive) in experiment [10]; > 10 µM (inactive) in experiment [11]; > 100 µM (inactive) in [20]; > 100 µM (inactive) in experiment [12]; > 100 µM (inactive) in experiment [13]. The GI50 in [14] was 3.67 µM (inactive).

Consider `Cc1ccc(/N=N/C(=O)NNc2ccc(C)cc2Br)c(Br)c1`, for which the GI50 in experiment [2] was 10.9 µM (inactive); in [3] it was 27.2 µM (inactive); in experiment [5] it was 19.3 µM (inactive); in [15], 20 µM; in [16], 20.5 µM (inactive); in experiment [6] it was 24.4 µM (inactive). For the same compound, the GI50 was 37.5 µM (inactive) in experiment [17]; 21.3 µM (inactive) in [7]; 17.3 µM (inactive) in experiment [18]; 32.5 µM (inactive) in [19]; 40.8 µM (inactive) in experiment [9]; 10.4 µM (inactive) in experiment [10]. Also, the GI50 in experiment [11] was 26.3 µM (inactive); in [20], 24.5 µM (inactive); in experiment [12] it was 24.9 µM (inactive); in experiment [13], 26.8 µM (inactive); in [14], 26.1 µM (inactive).

On to `Cc1nc2n(c1/C=C1/C(=O)Nc3ccccc31)CCS2`, for which the GI50 in experiment [1] was 20.2 µM (inactive); in [2] it was 24.2 µM (inactive); in experiment [3] it was 41.3 µM (inactive); in experiment [4] it was 33.8 µM (inactive); in [5], 17.6 µM (inactive); in [15], 34.2 µM. In addition, the GI50 in experiment [16] is 79.6 µM (inactive); in experiment [6], 51.9 µM (inactive); in [17] it was 52.5 µM (inactive); in experiment [18], 35.7 µM (inactive); in experiment [8], 39.6 µM (inactive); in [19], > 100 µM (inactive). In addition, the GI50 is 17.3 µM (inactive) in experiment [9]; 30.9 µM (inactive) in experiment [10]; 32.7 µM (inactive) in [11]; 47 µM (inactive) in experiment [20]; 42.1 µM (inactive) in experiment [12]; 33.3 µM (inactive) in [13]. In experiment [14], the GI50 is 34.5 µM (inactive).

As to `COc1cc(/C=C/C(=O)CC(=O)/C=C/c2ccc(OC(=O)CCCCC3CCSS3)c(OC)c2)ccc1OC(=O)CCCCC1CCSS1` (configuration not stated), the GI50 in [1] was > 100 µM (inactive); in experiment [2] it was > 100 µM (inactive); in [3], > 100 µM (inactive); in experiment [4], > 100 µM (inactive); in experiment [5] it was > 100 µM (inactive); in [15], over 100 µM. Also, the GI50 in experiment [16], in experiment [6], in [17], in experiment [7], in experiment [18] and in experiment [8] was > 100 µM (inactive) each time. For the same compound, the GI50 in [19], in experiment [9], in experiment [10], in experiment [11], in [20] and in experiment [13] was > 100 µM (inactive) in each case. The GI50 in experiment [14] was > 100 µM (inactive).

For the compound `COC(=O)[C@]1(CCC(C)=O)C(=O)C=CN([C@H](C)c2ccccc2)[C@@H]1Cc1ccc(OC)c(OCc2ccccc2)c1I`, the GI50 is 17.9 µM (inactive) in experiment [1]; 14.8 µM (inactive) in experiment [2]; 24.1 µM (inactive) in [3]; 29.2 µM (inactive) in [4]; 18.7 µM (inactive) in [5]; 18.9 µM in experiment [15]. The GI50 was 22 µM (inactive) in [16]; 20.4 µM (inactive) in experiment [6]; 19.3 µM (inactive) in experiment [17]; 15.7 µM (inactive) in experiment [7]; 15.9 µM (inactive) in experiment [18]; 17.7 µM (inactive) in experiment [8]. The GI50 in [19] was 22.5 µM (inactive); in experiment [10] it was 12.4 µM (inactive); in experiment [11], 15.8 µM (inactive); in [20], 23.7 µM (inactive); in experiment [12] it was 29.2 µM (inactive); in experiment [13], 16.7 µM (inactive). For the same compound, in experiment [14], the GI50 was 20 µM (inactive).

For the compound `C=Cc1nc2nnc(CCCCCCCCc3nnc4nc(C=C)[nH]n34)n2[nH]1`, the GI50 was > 100 µM (inactive) in experiment [1]; > 100 µM (inactive) in [3]; 63.1 µM (inactive) in experiment [4]; > 100 µM (inactive) in [5]; over 100 µM in experiment [15]; 83.8 µM (inactive) in experiment [16]. Besides, the GI50 in experiment [6] is 51.8 µM (inactive); in experiment [17], 83.9 µM (inactive); in experiment [7], > 100 µM (inactive); in experiment [18] it was 57.8 µM (inactive); in [8], 62.5 µM (inactive); in experiment [19], > 100 µM (inactive). Also, the GI50 is > 100 µM (inactive) in experiment [9]; 47.4 µM (inactive) in experiment [10]; 95.5 µM (inactive) in experiment [11]; 67.8 µM (inactive) in [20]; > 100 µM (inactive) in experiment [12]; 31.4 µM (inactive) in experiment [13].

Take `Nc1ccc(-c2nc3ccc(F)cc3s2)cc1`: the GI50 in [1] was 17.9 µM (inactive); in experiment [2], 16.6 µM (inactive); in experiment [3], 39.4 µM (inactive); in experiment [4], 33.9 µM (inactive); in experiment [5], 39.4 µM (inactive); in experiment [15], 35.8 µM. Moreover, the GI50 in [16] is 48.3 µM (inactive); in experiment [6], 28.1 µM (inactive); in [8], 25.5 µM (inactive); in experiment [19], 32.8 µM (inactive); in [9], 31.5 µM (inactive); in experiment [10], > 100 µM (inactive). In addition, the GI50 is 25.3 µM (inactive) in [11]; 31.3 µM (inactive) in experiment [20]; 31.1 µM (inactive) in experiment [12]; 43.2 µM (inactive) in [13]; 30.8 µM (inactive) in experiment [14].

`Cc1ccc2cc3c(ccc4ccccc43)c3c2c1CC3` [3-METHYLCHOLANTHRENE]: the GI50 in experiment [1] is > 100 µM (inactive); in experiment [2], > 100 µM (inactive); in experiment [3], > 100 µM (inactive); in [4], > 100 µM (inactive); in experiment [5], > 100 µM (inactive); in [15], 9.82 µM. Further, the GI50 in experiment [16], in experiment [6], in experiment [7], in experiment [18], in experiment [8] and in experiment [19] was > 100 µM (inactive) each time. Moreover, the GI50 in experiment [9], in experiment [10], in experiment [11], in experiment [20], in experiment [12] and in [13] was > 100 µM (inactive) throughout. In addition, the GI50 in experiment [14] is > 100 µM (inactive).
